Source: PMC3251870 (British Journal of Cancer, 2011)

What was measured:
[1] = tested on: HCC15 cells; assay: MTS cell viability, HCC15; assay type: cell-based, human; conditions: HCC15 NSCLC, MTS, 4 days
Procedure: (§1) All human cancer cell lines were maintained in RPMI media supplemented with 5% (lung and breast cancer cells) or 10% (melanoma cells) fetal bovine serum. […] Human mammary epithelial cells immortalised with telomerase were maintained in complete MEGM media from Cambrex (East Rutherford, NJ, USA).
(§2) Absorbance at 490 and 650 nm (reference wavelength) was measured by a Spectra Max (Molecular Devices, Sunnyvale, CA, USA) or a FlouroStar Omega (BMG Biosciences, Ortenberg, Germany) plate reader. Data were normalised to the untreated controls (100% viability). Each cell line was tested in 1–5 independent assays, each containing 4–8 replicates. IC50 values were calculated using DIVISA, a high-throughput software, developed in-house (manuscript in preparation), for storing and analysing drug sensitivity assays. Dose–response curves were plotted using a non-linear regression model and IC50s were determined from the fitted curves.

[2] = tested on: H292 cells; assay: MTS cell viability, H292; assay type: cell-based, human; conditions: H292 NSCLC, 4 days
Procedure: as §1, §2

[3] = tested on: A549 cells; assay: MTS cell viability, A549; assay type: cell-based, human; conditions: A549 NSCLC, 4 days
Procedure: as §1, §2

[4] = tested on: H358 cells; assay: MTS cell viability, H358; assay type: cell-based, human; conditions: H358 NSCLC, 4 days
Procedure: as §1, §2

[5] = tested on: H1395 cells; assay: MTS cell viability, H1395; assay type: cell-based, human; conditions: H1395 NSCLC, 4 days
Procedure: as §1, §2

[6] = tested on: H820 cells; assay: MTS cell viability, H820; assay type: cell-based, human; conditions: H820 NSCLC, 4 days
Procedure: as §1, §2

[7] = tested on: H2073 cells; assay: MTS cell viability, H2073; assay type: cell-based, human; conditions: H2073 NSCLC, MTS, 4 days
Procedure: as §1, §2

[8] = tested on: H1993 cells; assay: MTS cell viability, H1993; assay type: cell-based, human; conditions: H1993 NSCLC, MTS, 4 days
Procedure: as §1, §2

[9] = tested on: H1355 cells; assay: MTS cell viability, H1355; assay type: cell-based, human; conditions: H1355 NSCLC, 4 days
Procedure: as §1, §2

[10] = tested on: H1299 cells; assay: MTS cell viability, H1299; assay type: cell-based, human; conditions: H1299 NSCLC, 4 days
Procedure: as §1, §2

[11] = tested on: H1437 cells; assay: MTS cell viability, H1437; assay type: cell-based, human; conditions: H1437 NSCLC, MTS, 4 days
Procedure: as §1, §2

[12] = tested on: HCC1500 cells; assay: MTS cell viability, HCC1500; assay type: cell-based, human; conditions: HCC1500 breast cancer line, 4 days
Procedure: as §1, §2

[13] = tested on: HCC1806 cells; assay: MTS cell viability, HCC1806; assay type: cell-based, human; conditions: HCC1806 breast cancer line, 4 days
Procedure: as §1, §2

[14] = tested on: HCC1954 cells; assay: MTS cell viability, HCC1954; assay type: cell-based, human; conditions: HCC1954 breast cancer line, 4 days
Procedure: as §1, §2

[15] = tested on: MCF-10 cells; assay: MTS cell viability, MCF-10; assay type: cell-based, human; conditions: MCF-10, MTS, 4 days
Procedure: as §1, §2

[16] = tested on: 1585T immortalised normal human mammary epithelial cells; assay: MTS cell viability, 1585T; assay type: cell-based; conditions: 4 days
Procedure: as §1, §2

[17] = tested on: LOXIMVI melanoma cells; assay: MTS cell viability, LOXIMVI; assay type: cell-based, human; conditions: LOXIMVI melanoma, 4 days
Procedure: as §1, §2

[18] = tested on: SKMEL5 melanoma cells; assay: MTS cell viability, SKMEL5; assay type: cell-based, human; conditions: 4 days
Procedure: as §1, §2

[19] = tested on: M14 melanoma cells; assay: MTS cell viability, M14; assay type: cell-based, human; conditions: 4 days
Procedure: as §1, §2

[20] = tested on: SKMEL2 melanoma cells; assay: MTS cell viability, SKMEL2; assay type: cell-based, human; conditions: SKMEL2 melanoma, MTS, 4 days
Procedure: as §1, §2

[21] = tested on: SKMEL28 melanoma cells; assay: MTS cell viability, SKMEL28; assay type: cell-based, human; conditions: 4 days
Procedure: as §1, §2

[22] = tested on: MEL270 uveal melanoma cells; assay: MTS cell viability, MEL270; assay type: cell-based, human; conditions: 4 days
Procedure: as §1, §2

[23] = tested on: OCM1 uveal melanoma cells; assay: MTS cell viability, OCM1; assay type: cell-based, human; conditions: 4 days
Procedure: as §1, §2

[24] = tested on: OMM2.3 uveal melanoma cells; assay: MTS cell viability, OMM2.3; assay type: cell-based, human; conditions: 4 days
Procedure: as §1, §2

[25] = tested on: HBEC30KT human bronchial epithelial cells; assay: MTS cell viability, HBEC30KT; assay type: cell-based; conditions: HBEC30KT (normal, matched to HCC4017), 4 days
Procedure: as §1, §2

[26] = tested on: HCC4017 lung cancer cells; assay: MTS cell viability, HCC4017; assay type: cell-based, human; conditions: HCC4017 (lung cancer, matched to HBEC30KT), MTS, 4 days
Procedure: as §1, §2

[27] = tested on: HBEC34KT human bronchial epithelial cells; assay: MTS cell viability, HBEC34KT; assay type: cell-based; conditions: HBEC34KT (normal, matched to HCC4018), 4 days
Procedure: as §1, §2

[28] = tested on: HCC4018 lung cancer cells; assay: MTS cell viability, HCC4018; assay type: cell-based, human; conditions: HCC4018 (lung cancer, matched to HBEC34KT), MTS, 4 days
Procedure: as §1, §2

[29] = tested on: total HDAC activity, C127 cell extracts; assay: Total HDAC activity in cell extracts treated in vitro; assay type: biochemical
Excerpt: HDAC2 was purified as described below.

[30] = tested on: histone 3 acetylation in H358 cells; assay: Western blot, acetylated histone 3; assay type: cell-based, human; conditions: 24 h
Procedure: (§3) Exponentially growing cells were treated with the appropriate compounds and harvested 4 or 24 h later in a standard nuclear lysis buffer and whole cell lysates were quantified. Equal amounts of total protein were loaded onto 4–12% Bis-Tris SDS gels and subjected to electrophoresis. After transferring onto nitrocellulose membranes, blots were probed for acetylated tubulin (Sigma, St Louis, MO, USA; T6793), acetylated histone 3 (Millipore/Upstate #06-599), acetylated histone 4 (Millipore/Upstate #07-329) or trimethylated histone 3 at lysine 9 (Millipore/Upstate #07-523). Actin (Santa Cruz, Santa Cruz, CA, USA; #1616) and HDAC1 (Affinity Bioreagents, Rockford, IL, USA; #PA1-860) were probed as loading controls. Quantification of bands in films was performed using two independent methods, which yielded similar results, Image J (NIH public software) and Quantity one (Bio-Rad, Hercules, CA, USA). The average of the two methods±s.e.m. is shown as specified in figure legends. For the MDR western analysis, a primary antibody against P-glycoprotein from Calbiochem (Darmstadt, Germany) was used according to the manufacturer's recommendations and HSP90 (Santa Cruz) was used as a loading control.

[31] = tested on: histone 4 acetylation in H358 cells; assay: Western blot, acetylated histone 4; assay type: cell-based, human; conditions: 4 h
Procedure: as §3

[32] = tested on: histone 3 trimethylated at lysine 9 in H358 cells; assay: Western blot, histone 3 lysine 9 trimethylation; assay type: cell-based, human
Procedure: as §3

Row | Compound | IC50 [1] [nM] | IC50 [2] [nM] | IC50 [3] [nM] | IC50 [4] [nM] | IC50 [5] [nM] | IC50 [6] [nM] | IC50 [7] [nM] | IC50 [8] [nM] | IC50 [9] [nM] | IC50 [10] [nM] | IC50 [11] [nM] | IC50 [12] [nM] | IC50 [13] [nM] | IC50 [14] [nM] | IC50 [15] [nM] | IC50 [16] [nM] | IC50 [17] [nM] | IC50 [18] [nM] | IC50 [19] [nM] | IC50 [20] [nM] | also measured
1 | C/C=C1\NC(=O)[C@H]2CSSCC/C=C/[C@H](CC(=O)N[C@H](C(C)C)C(=O)N2)OC(=O)[C@H](C(C)C)NC1=O [Depsipeptide, depsipeptide] | 6.4 | 0.7 | 2 | 1.1 | 5.3 | 4 | 37.1 | 1.2 | 1.8 | 12.1 | 0.5 | 1.5 | 1.8 | 1.5 | 2.4 | 1.3 | 1.2 | 1.5 | 2.4 | 0.4 | IC50 [21]: 0.8 nM; IC50 [22]: 1.8 nM; IC50 [23]: 5.5 nM; IC50 [24]: 2.7 nM; IC50 [25]: 0.9 nM; IC50 [26]: 6.5 nM; IC50 [27]: 1.3 nM; IC50 [28]: 4.2 nM; inhibition of total HDAC activity in cell extracts treated in vitro ([29]; 20 nM): partly inhibited; global level of histone 3 acetylation ([30]; 25 nM): globally increased; global level of histone 4 acetylation ([31]; 25 nM): globally increased; global level of histone 3 trimethylated at lysine 9 ([32]; 25 nM): reproducibly decreased
2 | CC(/C=C/C(=O)NO)=C\[C@@H](C)C(=O)c1ccc(N(C)C)cc1 [TSA, trichostatin A] | 7.9 | 22.5 | 39.7 | 40 | 41 | 55 | 63.7 | 93.5 | 107 | 150 | 191 | 29 | 41 | 91 | 96 | 124 | 57 | 66 | 98 | 336 | IC50 [21]: 400 nM; IC50 [22]: 68 nM; IC50 [23]: 188 nM; IC50 [24]: 81 nM; IC50 [25]: 285 nM; IC50 [26]: 73 nM; IC50 [27]: 346 nM; IC50 [28]: 23 nM; inhibition of total HDAC activity in cell extracts treated in vitro ([29]; 150 nM): blocked; global level of histone 3 acetylation ([30]; 200 nM): globally increased; global level of histone 4 acetylation ([31]; 200 nM): globally increased; global level of histone 3 trimethylated at lysine 9 ([32]; 200 nM): no effect
